Assay results as given in US8188059B2, “Compounds and methods for modulating expression of GCGR” (Isis Pharmaceuticals, Inc., priority 2006, dated 2012).
Strand notation (5' to 3'): a small letter for the sugar, then the base; units joined by * are phosphorothioate-linked, units joined directly phosphodiester-linked; [ ] holds rarer units or linkages, { } end groups; capitals alone tell only the bases. e = 2'-O-(2-methoxyethyl) (MOE); [5mC] = 5-methylcytosine; d = 2'-deoxy (DNA)

What was measured:
DGAT2 mRNA = assay: Antisense inhibition of DGAT2 in A10 cells at 75 nM (Example 22, Table 81); format: cell-based, rat; conditions: approximately 24 hours
Protocol: Short antisense compounds targeted to a DGAT2 nucleic acid were tested for their effects on DGAT2 mRNA in vitro. Cultured A10 cells in a 96-well plate were treated with 75 nM of short antisense compound. After a treatment period of approximately 24 hours, RNA was isolated from the cells and DGAT2 mRNA levels were measured by quantitative real-time PCR, as described herein. DGAT2 mRNA levels were adjusted according to total RNA content as measured by RIBOGREEN®. […]

rat DGAT2 mRNA [1] = assay: Dose-dependent inhibition of DGAT2 in A10 cells, 0.62-150 nM (Example 22, Table 83); format: cell-based
Protocol: Additional short antisense compounds targeted to DGAT2 mRNA were tested in vitro. A10 cells were prepared as described above and treated with 0.62, 1.85, 5.56, 16.67, 50.0, and 150.0 nM short antisense compounds to determine if DGAT2 inhibition occurs in a dose-dependent manner. DGAT2 mRNA was measured using quantitative real-time PCR, as described herein. […] Results are presented as percent inhibition of rat DGAT2, relative to untreated control cells.

rat DGAT2 mRNA [2] = assay: Dose-dependent inhibition of DGAT2 in A10 cells, 6.25-200 nM (Example 22, Table 82); format: cell-based
Protocol: Additional short antisense compounds targeted to DGAT2 mRNA were tested in vitro in a dose-response experiment. A10 cells were prepared as described above and treated with 6.25, 12.5, 25.0, 50.0, 100.0, and 200.0 nM short antisense compounds to determine if DGAT2 inhibition occurs in a dose-dependent manner. […] Results are presented as percent inhibition, relative to untreated control cells.

SGLT2 mRNA = SGLT2 mRNA levels in kidney of Balb/c mice, twenty 1-10-1 MOE gapmers at 350 nmol/kg, PPS 534 and PPS 553 (Example 18, Table 74); format: in vivo, mouse; conditions: 350 nmol/kg i.p. twice per week for two weeks
Protocol: Twenty 1-10-1 MOE gapmers that are complementary to human/monkey/mouse/rat SGLT2 were designed, synthesized and tested in vivo for suppression of SGLT2 mRNA levels in kidney. Data are averages from two experiments in which male 6-week old Balb/c mice were administered intraperitoneal injections of 350 nmol/kg of oligonucleotide, twice per week, over a period of two weeks (a total of four injections). Mice were sacrificed 48 hours following the last administration and evaluated for SGLT2 mRNA levels in kidney. SGLT2 mRNA levels were determined by quantitative real-time PCR analysis according to standard procedures, using two different PCR primer probe sets, primer probe set (PPS) 534 and PPS 553. SGLT2 mRNA levels were normalized to cyclophilin mRNA levels, which were also measured by quantitative real-time PCR.

372491 (antisense eA*e[5mC]*eA*dT*dG*dA*dG*dG*dA*dT*dG*dA*d[5mC]*eA*e[5mC]*eT) [compound 372491]
DGAT2 mRNA, % Control (DGAT2 mRNA): 80%

372500 (antisense eG*eT*eG*dT*dG*dT*d[5mC]*dT*dT*d[5mC]*dA*d[5mC]*d[5mC]*eA*eG*e[5mC]) [compound 372500]
DGAT2 mRNA, % Control (DGAT2 mRNA): 16%
percent inhibition of rat DGAT2 (rat DGAT2 mRNA [1]; 0.62 nM): 0
percent inhibition of rat DGAT2 (rat DGAT2 mRNA [1]; 1.85 nM): 0
percent inhibition of rat DGAT2 (rat DGAT2 mRNA [1]; 5.56 nM): 0
percent inhibition of rat DGAT2 (rat DGAT2 mRNA [1]; 16.67 nM): 18
percent inhibition of rat DGAT2 (rat DGAT2 mRNA [1]; 50 nM): 64
percent inhibition of rat DGAT2 (rat DGAT2 mRNA [1]; 150 nM): 88

372501 (antisense eT*eT*eG*dT*dG*dT*dG*dT*d[5mC]*dT*dT*d[5mC]*dA*e[5mC]*e[5mC]*eA) [compound 372501]
DGAT2 mRNA, % Control (DGAT2 mRNA): 28%
percent inhibition of rat DGAT2 (rat DGAT2 mRNA [1]; 0.62 nM): 1
percent inhibition of rat DGAT2 (rat DGAT2 mRNA [1]; 1.85 nM): 5
percent inhibition of rat DGAT2 (rat DGAT2 mRNA [1]; 5.56 nM): 10
percent inhibition of rat DGAT2 (rat DGAT2 mRNA [1]; 16.67 nM): 11
percent inhibition of rat DGAT2 (rat DGAT2 mRNA [1]; 50 nM): 25
percent inhibition of rat DGAT2 (rat DGAT2 mRNA [1]; 150 nM): 68

372503 (antisense eG*e[5mC]*eA*dG*dG*dT*dT*dG*dT*dG*dT*dG*dT*e[5mC]*eT*eT) [compound 372503]
DGAT2 mRNA, % Control (DGAT2 mRNA): 35%
percent inhibition of rat DGAT2 (rat DGAT2 mRNA [1]; 0.62 nM): 7
percent inhibition of rat DGAT2 (rat DGAT2 mRNA [1]; 1.85 nM): 10
percent inhibition of rat DGAT2 (rat DGAT2 mRNA [1]; 5.56 nM): 4
percent inhibition of rat DGAT2 (rat DGAT2 mRNA [1]; 16.67 nM): 25
percent inhibition of rat DGAT2 (rat DGAT2 mRNA [1]; 50 nM): 54
percent inhibition of rat DGAT2 (rat DGAT2 mRNA [1]; 150 nM): 80

372508 (antisense eA*eG*eT*dT*d[5mC]*d[5mC]*dT*dG*dG*dT*dG*dG*dT*e[5mC]*eA*eG) [compound 372508]
DGAT2 mRNA, % Control (DGAT2 mRNA): 35%
percent inhibition of rat DGAT2 (rat DGAT2 mRNA [1]; 0.62 nM): 0
percent inhibition of rat DGAT2 (rat DGAT2 mRNA [1]; 1.85 nM): 0
percent inhibition of rat DGAT2 (rat DGAT2 mRNA [1]; 5.56 nM): 6
percent inhibition of rat DGAT2 (rat DGAT2 mRNA [1]; 16.67 nM): 14
percent inhibition of rat DGAT2 (rat DGAT2 mRNA [1]; 50 nM): 39
percent inhibition of rat DGAT2 (rat DGAT2 mRNA [1]; 150 nM): 71

372516 (antisense eT*eA*e[5mC]*dA*dG*dA*dA*dG*dG*d[5mC]*dA*d[5mC]*d[5mC]*e[5mC]*eA*eG) [compound 372516]
DGAT2 mRNA, % Control (DGAT2 mRNA): 27%
percent inhibition of rat DGAT2 (rat DGAT2 mRNA [1]; 0.62 nM): 1
percent inhibition of rat DGAT2 (rat DGAT2 mRNA [1]; 1.85 nM): 10
percent inhibition of rat DGAT2 (rat DGAT2 mRNA [1]; 5.56 nM): 0
percent inhibition of rat DGAT2 (rat DGAT2 mRNA [1]; 16.67 nM): 4
percent inhibition of rat DGAT2 (rat DGAT2 mRNA [1]; 50 nM): 35
percent inhibition of rat DGAT2 (rat DGAT2 mRNA [1]; 150 nM): 81

372562 (antisense eG*eT*d[5mC]*dT*dT*dG*dG*dA*dG*dG*dG*d[5mC]*e[5mC]*eG) [compound 372562]
percent inhibition of DGAT2 (rat DGAT2 mRNA [2]; 6.25 nM): 0
percent inhibition of DGAT2 (rat DGAT2 mRNA [2]; 12.5 nM): 0
percent inhibition of DGAT2 (rat DGAT2 mRNA [2]; 50.0 nM): 36
percent inhibition of DGAT2 (rat DGAT2 mRNA [2]; 100.0 nM): 48
percent inhibition of DGAT2 (rat DGAT2 mRNA [2]; 200.0 nM): 75
percent inhibition of DGAT2 (rat DGAT2 mRNA [2]; […]): 0

372568 (antisense eG*eA*d[5mC]*dA*d[5mC]*dT*dG*d[5mC]*dA*dG*dG*d[5mC]*e[5mC]*eA) [compound 372568]
percent inhibition of DGAT2 (rat DGAT2 mRNA [2]; 6.25 nM): 0
percent inhibition of DGAT2 (rat DGAT2 mRNA [2]; 12.5 nM): 0
percent inhibition of DGAT2 (rat DGAT2 mRNA [2]; 50.0 nM): 26
percent inhibition of DGAT2 (rat DGAT2 mRNA [2]; 100.0 nM): 72
percent inhibition of DGAT2 (rat DGAT2 mRNA [2]; 200.0 nM): 69
percent inhibition of DGAT2 (rat DGAT2 mRNA [2]; […]): 15

372569 (antisense e[5mC]*eA*dT*dG*dA*dG*dG*dA*dT*dG*dA*d[5mC]*eA*e[5mC]) [compound 372569]
DGAT2 mRNA, % Control (DGAT2 mRNA): 104%

379693 (antisense e[5mC]*dA*dT*dG*dG*dT*dG*dA*dT*dG*d[5mC]*e[5mC]) [compound 379693]
SGLT2 mRNA in kidney, % change relative to saline (SGLT2 mRNA; primer probe set 534): −51.6%
SGLT2 mRNA in kidney, % change relative to saline (SGLT2 mRNA; primer probe set 553): −59.9%

379694 (antisense eG*dA*d[5mC]*dG*dA*dA*dG*dG*dT*d[5mC]*dT*eG) [compound 379694]
SGLT2 mRNA in kidney, % change relative to saline (SGLT2 mRNA; primer probe set 534): −42.1%
SGLT2 mRNA in kidney, % change relative to saline (SGLT2 mRNA; primer probe set 553): −54.4%
